Test results as given in US20230302036A1, “COMPOSITIONS FOR TREATMENT OF SPINAL MUSCULAR ATROPHY” (priority 2020, published 2023).

System: SMA mice (Smn-/-; SMN2 2TG/0)
Assay: Growth curves (body weight gain) of severe SMA mice
Assay type: in vivo, mouse
Details: ASO1 at P0 and P1 and/or VPA 10 µg/g s.c.
Procedure: Kaplan-Meier survival plot (FIG. 4A) and growth curves (FIG. 4B) of SMA mice, following subcutaneous administration at P0 and P1 of 16.8 µg ASO1 (n=18) or saline (n=14), one subcutaneous dose before P3 of 10 µg per g of body weight VPA (n=12), or both treatments together (n=20). ASO1-treated Smn^+/- heterozygote littermates (n=15) served as controls. Scramble (Ctrl) (n=12, 40 trials), VPA (n=13, 50 trials), ASO1 (n=11, 50 trials), ASO1 + VPA (n=17, 68 trials), and untreated heterozygotes (n=12, 36 trials). Statistical significance was analyzed by two-way repeated measures ANOVA. P < 0.05 was considered statistically significant; data are represented as mean + SD. In the righting-reflex test, the time it took a mouse to right itself […] on a flat surface was measured. In the grip-strength test, the angle at which the pups fell from a tablet with a rough to which they held on by their forelimbs was measured.
FIGS. 7A-H show ASO1 and TSA combined treatment in mice. Kaplan-Meier survival plot (FIG. 7A) and growth curves (FIG. 7B) of SMA mice after subcutaneous administration at P0 and P1 of 16.8 µg ASO1 (n=20) or vehicle (n=12), one subcutaneous dose of 10 µg per g of body weight TSA (n=15) at P2, or both treatments together (n=24), are shown. ASO1-treated heterozygotes (n=18) served as controls. Statistical significance was analyzed by two-way repeated measures ANOVA. […]

## CCCC(CCC)C(=O)O [VPA, valproic acid]
  body weight gain in the surviving mice: lack of an effect per se
